Experimental data: US8552176B2 (priority 2010, dated 2013)

How the values were obtained:
A549 = assay: cells; type: cell-based, human; settings: read-out: GI50 A549 lung (+p53)
NCI-H460 [1] = assay: cells; type: cell-based, human; settings: read-out: GI50 NCI-H460 lung
Hep3b = assay: cells; type: cell-based, human; settings: read-out: GI50 Hep3b liver
SKOV3 [2] = assay: cells; type: cell-based, human; settings: read-out: GI50 SKOV3 ovary
[3] = tested on: ten-member panel of human carcinomas; assay: cells; type: cell-based
CCRF-CEM = assay: NCI 60 Human Tumor Cell Line Anticancer Screen; type: cell-based; settings: Leukemia
HL-60 (TB) = type: cell-based, human
A549/ATCC = assay: NCI 60 Human Tumor Cell Line Anticancer Screen; type: cell-based; settings: Non-small cell lung
EKVX = assay: NCI 60 Human Tumor Cell Line Anticancer Screen; type: cell-based; settings: Non-small cell lung
NCI-H23 = assay: NCI 60 Human Tumor Cell Line Anticancer Screen; type: cell-based; settings: NCI-H23, Non-small cell lung
NCI-H322M = assay: NCI 60 Human Tumor Cell Line Anticancer Screen; type: cell-based; settings: Non-small cell lung
NCI-H460 [4] = assay: NCI 60 Human Tumor Cell Line Anticancer Screen; type: cell-based; settings: NCI-H460, Non-small cell lung
NCI-H522 = assay: NCI 60 Human Tumor Cell Line Anticancer Screen; type: cell-based; settings: NCI-H522, Non-small cell lung
COLO 205 = assay: NCI 60 Human Tumor Cell Line Anticancer Screen; type: cell-based; settings: COLO 205, Colon
HCT-116 = assay: NCI 60 Human Tumor Cell Line Anticancer Screen; type: cell-based; settings: HCT-116, Colon
HT29 = assay: NCI 60 Human Tumor Cell Line Anticancer Screen; type: cell-based; settings: HT29, Colon
SW-620 = assay: NCI 60 Human Tumor Cell Line Anticancer Screen; type: cell-based; settings: SW-620, Colon
SF-539 = assay: NCI 60 Human Tumor Cell Line Anticancer Screen; type: cell-based; settings: SF-539, CNS
SNB-75 = assay: NCI 60 Human Tumor Cell Line Anticancer Screen; type: cell-based; settings: SNB-75, CNS
PC-3 = assay: NCI 60 Human Tumor Cell Line Anticancer Screen; type: cell-based; settings: PC-3, Prostate
DU-145 = assay: NCI 60 Human Tumor Cell Line Anticancer Screen; type: cell-based; settings: DU-145, Prostate
LOX IMVI = assay: NCI 60 Human Tumor Cell Line Anticancer Screen; type: cell-based; settings: Melanoma
M14 = assay: NCI 60 Human Tumor Cell Line Anticancer Screen; type: cell-based; settings: M14, Melanoma
MDA-MB-435 = assay: NCI 60 Human Tumor Cell Line Anticancer Screen; type: cell-based; settings: MDA-MB-435, Melanoma
SK-MEL-28 = assay: NCI 60 Human Tumor Cell Line Anticancer Screen; type: cell-based; settings: SK-MEL-28, Melanoma
UACC-62 = assay: NCI 60 Human Tumor Cell Line Anticancer Screen; type: cell-based; settings: UACC-62, Melanoma
IGROV1 = assay: NCI 60 Human Tumor Cell Line Anticancer Screen; type: cell-based; settings: IGROV1, Ovary
OVCAR-3 = assay: NCI 60 Human Tumor Cell Line Anticancer Screen; type: cell-based; settings: OVCAR-3, Ovary
OVCAR-5 = assay: NCI 60 Human Tumor Cell Line Anticancer Screen; type: cell-based; settings: OVCAR-5, Ovary
NCI/ADR-RES = assay: NCI 60 Human Tumor Cell Line Anticancer Screen; type: cell-based; settings: Ovary
SKOV3 [5] = assay: NCI 60 Human Tumor Cell Line Anticancer Screen; type: cell-based; settings: SKOV3, Ovary
786-0 = assay: NCI 60 Human Tumor Cell Line Anticancer Screen; type: cell-based; settings: 786-0, Renal
SN12C = assay: NCI 60 Human Tumor Cell Line Anticancer Screen; type: cell-based; settings: Renal
UO-31 = assay: NCI 60 Human Tumor Cell Line Anticancer Screen; type: cell-based; settings: UO-31, Renal
MCF7 = assay: NCI 60 Human Tumor Cell Line Anticancer Screen; type: cell-based; settings: MCF7, Breast
HS 578T = assay: NCI 60 Human Tumor Cell Line Anticancer Screen; type: cell-based; settings: Breast
BT-549 = assay: NCI 60 Human Tumor Cell Line Anticancer Screen; type: cell-based; settings: BT-549, Breast
T-47D = assay: NCI 60 Human Tumor Cell Line Anticancer Screen; type: cell-based; settings: Breast
MDA-MB-468 = assay: NCI 60 Human Tumor Cell Line Anticancer Screen; type: cell-based; settings: MDA-MB-468, Breast

SMILES: CON(CCCCc1ccc(N(CCCl)CCCl)cc1)C1OCC(O)C1O (stereo not drawn) [Compound 60]
- GI50 (A549): 1.1 ± 0.1 µM
- GI50 (NCI-H460 [1]): 1.7 ± 0.4 µM
- GI50 (Hep3b): 0.67 ± 0.06 µM
- GI50 (SKOV3 [2]): 1.5 ± 0.1 µM
- improvement in average growth inhibition across the cell panel [3]: 8 fold
- increases in potency compared to 1 [3]: up to 15 fold
- GI50 (CCRF-CEM): 2.36 µM
- Inhibition at 10 μM (CCRF-CEM; 10 μM): 21.19%
- GI50 (HL-60 (TB)): 1.88 µM
- Inhibition at 10 μM (HL-60 (TB)): 68.31%
- GI50 (A549/ATCC): 12.2 µM
- Inhibition at 10 μM (A549/ATCC; 10 μM): 69.72%
- GI50 (EKVX): 37.9 µM
- Inhibition at 10 μM (EKVX; 10 μM): 91.24%
- GI50 (NCI-H23): 7.15 µM
- Inhibition at 10 μM (NCI-H23; 10 μM): 54.44%
- GI50 (NCI-H322M): > 100 µM
- Inhibition at 10 μM (NCI-H322M; 10 μM): 99.02%
- GI50 (NCI-H460 [4]): 3.76 µM
- Inhibition at 10 μM (NCI-H460 [4]; 10 μM): 35.80%
- GI50 (NCI-H522): 10 µM
- Inhibition at 10 μM (NCI-H522; 10 μM): 52.38%
- GI50 (COLO 205): 12.7 µM
- Inhibition at 10 μM (COLO 205; 10 μM): 93.34%
- GI50 (HCT-116): 14.5 µM
- Inhibition at 10 μM (HCT-116; 10 μM): 69.37%
- GI50 (HT29): 26.6 µM
- Inhibition at 10 μM (HT29; 10 μM): 70.71%
- GI50 (SW-620): 12.4 µM
- Inhibition at 10 μM (SW-620; 10 μM): 68.08%
- GI50 (SF-539): 8.8 µM
- Inhibition at 10 μM (SF-539; 10 μM): 51.79%
- GI50 (SNB-75): 19.5 µM
- Inhibition at 10 μM (SNB-75; 10 μM): 66.74%
- GI50 (PC-3): 11.7 µM
- Inhibition at 10 μM (PC-3; 10 μM): 72.52%
- GI50 (DU-145): 4.84 µM
- Inhibition at 10 μM (DU-145; 10 μM): 56.78%
- GI50 (LOX IMVI): 8.61 µM
- Inhibition at 10 μM (LOX IMVI; 10 μM): 54.82%
- GI50 (M14): 9.25 µM
- Inhibition at 10 μM (M14; 10 μM): 67.23%
- GI50 (MDA-MB-435): 21.1 µM
- Inhibition at 10 μM (MDA-MB-435; 10 μM): 83.03%
- GI50 (SK-MEL-28): 36.5 µM
- Inhibition at 10 μM (SK-MEL-28; 10 μM): 116.87%
- GI50 (UACC-62): 1.69 µM
- Inhibition at 10 μM (UACC-62; 10 μM): 52.06%
- GI50 (IGROV1): 1.21 µM
- GI50 (OVCAR-3): 15.3 µM
- Inhibition at 10 μM (OVCAR-3; 10 μM): 85.34%
- Inhibition at 10 μM (OVCAR-5): 111.11%
- GI50 (NCI/ADR-RES): 4.61 µM
- Inhibition at 10 μM (NCI/ADR-RES; 10 μM): 61.54%
- GI50 (SKOV3 [5]): 17.9 µM
- Inhibition at 10 μM (SKOV3 [5]; 10 μM): 72.76%
- GI50 (786-0): 6.16 µM
- Inhibition at 10 μM (786-0; 10 μM): 67.90%
- GI50 (SN12C): 7.06 µM
- Inhibition at 10 μM (SN12C; 10 μM): 54.23%
- GI50 (UO-31): 0.856 µM
- Inhibition at 10 μM (UO-31; 10 μM): 54.43%
- GI50 (MCF7): 4.51 µM
- Inhibition at 10 μM (MCF7; 10 μM): 32.40%
- GI50 (HS 578T): 24.7 µM
- Inhibition at 10 μM (HS 578T; 10 μM): 139.25%
- GI50 (BT-549): 13.4 µM
- Inhibition at 10 μM (BT-549; 10 μM): 38.53%
- GI50 (T-47D): 6.37 µM
- Inhibition at 10 μM (T-47D; 10 μM): 48.01%
- GI50 (MDA-MB-468): 7.25 µM
- Inhibition at 10 μM (MDA-MB-468; 10 μM): 43.87%
